For one test, the species on record is Sus scrofa. The test is described as follows: Inhibition of porcine kidney alpha-trehalase assessed as release of p-nitrophenol at 1000 uM using p-nitrophenyl glycoside as substrate by spectrometric assay relative to control.
For a further test, the species on record is Rattus norvegicus. Kind of test: Inhibition of rat intestinal alpha-trehalase assessed as release of p-nitrophenol at 1000 uM using p-nitrophenyl glycoside as substrate by spectrometric assay relative to control.
The target in test [1] is Sucrase-isomaltase, intestinal (Rattus norvegicus, UniProt P23739). Kind of test: Inhibition of rat intestinal sucrase assessed as release of p-nitrophenol using p-nitrophenyl glycoside as substrate by spectrometric assay.
Another test has as its system Prunus dulcis. The test is described as follows: Inhibition of almond beta-glucosidase assessed as release of p-nitrophenol at 1000 uM using p-nitrophenyl glycoside as substrate by spectrometric assay relative to control.
Test [2] can be described thus: Inhibition of yeast alpha-glucosidase assessed as release of p-nitrophenol using p-nitrophenyl glycoside as substrate by spectrometric assay. More on the design: species or system Saccharomyces cerevisiae.
The test system of the next test is Oryza sativa. The test is described as follows: Inhibition of rice alpha-glucosidase assessed as release of p-nitrophenol at 1000 uM using p-nitrophenyl glycoside as substrate by spectrometric assay relative to control.
The target in test [3] is T1, Lysosomal alpha-glucosidase (Homo sapiens, UniProt P10253). Kind of test: Inhibition of human lysosomal alpha glucosidase assessed as release of p-nitrophenol at 1000 uM using p-nitrophenyl glycoside as substrate by spectrometric assay relative to control.
The species named for test [4] is Bos taurus. The test is described as follows: Inhibition of bovine liver beta-glucosidase assessed as release of p-nitrophenol at 1000 uM using p-nitrophenyl glycoside as substrate by spectrometric assay relative to control.
For test [5], the target named is Alpha-galactosidase (Coffea arabica) (UniProt Q42656). Kind of test: Inhibition of coffee beans alpha-galactosidase assessed as release of p-nitrophenol at 1000 uM using p-nitrophenyl glycoside as substrate by spectrometric assay relative to control.
For test [6], the species on record is Bos taurus. The test is described as follows: Inhibition of bovine liver beta-galactosidase assessed as release of p-nitrophenol at 1000 uM using p-nitrophenyl glycoside as substrate by spectrometric assay relative to control.
The target of test [7] is T2, Alpha-mannosidase (Canavalia ensiformis) (UniProt C0HJB3).
T2 sequence (whole entry): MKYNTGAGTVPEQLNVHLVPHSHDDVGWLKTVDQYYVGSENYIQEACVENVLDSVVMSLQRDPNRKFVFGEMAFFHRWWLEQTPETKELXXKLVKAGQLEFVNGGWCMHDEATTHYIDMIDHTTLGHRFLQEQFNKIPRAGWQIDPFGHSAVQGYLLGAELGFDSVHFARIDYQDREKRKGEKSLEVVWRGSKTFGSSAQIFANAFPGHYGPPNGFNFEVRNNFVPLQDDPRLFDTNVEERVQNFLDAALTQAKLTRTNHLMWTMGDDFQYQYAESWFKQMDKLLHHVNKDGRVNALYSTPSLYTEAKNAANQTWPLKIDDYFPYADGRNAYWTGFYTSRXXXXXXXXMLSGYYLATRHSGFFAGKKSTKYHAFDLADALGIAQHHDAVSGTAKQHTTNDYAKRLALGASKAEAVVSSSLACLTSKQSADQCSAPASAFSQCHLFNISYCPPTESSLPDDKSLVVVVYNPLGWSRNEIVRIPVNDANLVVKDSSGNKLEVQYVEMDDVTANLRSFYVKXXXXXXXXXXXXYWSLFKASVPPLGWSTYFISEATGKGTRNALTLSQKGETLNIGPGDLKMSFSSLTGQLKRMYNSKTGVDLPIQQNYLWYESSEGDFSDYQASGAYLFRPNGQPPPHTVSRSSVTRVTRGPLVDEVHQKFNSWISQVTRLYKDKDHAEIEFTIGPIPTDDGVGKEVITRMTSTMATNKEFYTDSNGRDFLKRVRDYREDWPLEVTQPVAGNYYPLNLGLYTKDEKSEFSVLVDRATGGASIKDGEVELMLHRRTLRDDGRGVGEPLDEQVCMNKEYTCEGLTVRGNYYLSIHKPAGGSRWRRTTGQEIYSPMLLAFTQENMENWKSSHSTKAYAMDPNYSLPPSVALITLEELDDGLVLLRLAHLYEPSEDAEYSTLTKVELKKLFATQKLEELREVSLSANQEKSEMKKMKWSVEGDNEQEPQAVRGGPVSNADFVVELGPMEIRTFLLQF
The test is described as follows: Inhibition of jack bean alpha-mannosidase assessed as release of p-nitrophenol at 1000 uM using p-nitrophenyl glycoside as substrate by spectrometric assay relative to control.

The next test concerns Helix pomatia. The test is described as follows: Inhibition of snail beta-mannosidase assessed as release of p-nitrophenol at 1000 uM using p-nitrophenyl glycoside as substrate by spectrometric assay relative control.
In test [8] the target is T3, Tissue alpha-L-fucosidase (Bos taurus) (UniProt Q2KIM0).
T3 sequence (whole entry): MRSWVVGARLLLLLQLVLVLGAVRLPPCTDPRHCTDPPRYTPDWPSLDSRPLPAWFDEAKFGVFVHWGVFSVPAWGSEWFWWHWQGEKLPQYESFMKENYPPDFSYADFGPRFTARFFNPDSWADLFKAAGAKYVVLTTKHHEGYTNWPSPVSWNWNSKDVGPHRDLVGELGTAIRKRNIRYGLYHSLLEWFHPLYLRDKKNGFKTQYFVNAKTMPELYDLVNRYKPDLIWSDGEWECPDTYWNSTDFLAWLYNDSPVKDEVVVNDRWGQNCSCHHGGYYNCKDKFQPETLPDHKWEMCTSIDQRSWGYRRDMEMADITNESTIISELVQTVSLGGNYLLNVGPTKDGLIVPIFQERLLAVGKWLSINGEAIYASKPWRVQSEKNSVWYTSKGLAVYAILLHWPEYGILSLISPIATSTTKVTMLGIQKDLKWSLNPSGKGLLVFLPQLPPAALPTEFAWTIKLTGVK
Kind of test: Inhibition of bovine kidney alpha-L-fucosidase assessed as release of p-nitrophenol at 1000 uM using p-nitrophenyl glycoside as substrate by spectrometric assay relative to control.

The test system of the next test is Aspergillus niger. Kind of test: Inhibition of Aspergillus niger amyloglucosidase assessed as release of p-nitrophenol at 1000 uM using p-nitrophenyl glycoside as substrate by spectrometric assay relative to control.
A further test deals with Penicillium decumbens. Kind of test: Inhibition of Penicillium decumbens alpha-L-rhamnosidase assessed as release of p-nitrophenol at 1000 uM using p-nitrophenyl glycoside as substrate by spectrometric assay relative to control.
The subject of a further test is Escherichia coli. The test is described as follows: Inhibition of Escherichia coli beta-glucuronidase assessed as release of p-nitrophenol at 1000 uM using p-nitrophenyl glycoside as substrate by spectrometric assay relative to control.
The species named for test [9] is Bos taurus. Kind of test: Inhibition of bovine liver beta-glucronidase assessed as release of p-nitrophenol at 1000 uM using p-nitrophenyl glycoside as substrate by spectrometric assay relative to control.
Test [10] has as its target T1, Lysosomal alpha-glucosidase. The test is described as follows: Inhibition of human lysosomal alpha glucosidase assessed as release of p-nitrophenol using p-nitrophenyl glycoside as substrate by spectrometric assay.
The nature of test [11]: Inhibition of rice alpha-glucosidase assessed as release of p-nitrophenol using p-nitrophenyl glycoside as substrate by spectrometric assay. More on the design: species or system Oryza sativa.

Sequence of Alpha-galactosidase (Coffea arabica) (Q42656 16-378 limits assumed): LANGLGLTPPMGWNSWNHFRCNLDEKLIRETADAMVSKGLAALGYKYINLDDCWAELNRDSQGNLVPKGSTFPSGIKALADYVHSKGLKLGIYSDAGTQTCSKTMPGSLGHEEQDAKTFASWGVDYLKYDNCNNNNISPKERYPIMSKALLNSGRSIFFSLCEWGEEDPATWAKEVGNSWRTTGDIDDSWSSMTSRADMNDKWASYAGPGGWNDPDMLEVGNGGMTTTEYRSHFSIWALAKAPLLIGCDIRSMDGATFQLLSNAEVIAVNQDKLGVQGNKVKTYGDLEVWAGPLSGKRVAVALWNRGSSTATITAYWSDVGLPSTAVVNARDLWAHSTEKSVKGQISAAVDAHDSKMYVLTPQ
Sequence of Sucrase-isomaltase, intestinal (P23739 1-1013 limits assumed): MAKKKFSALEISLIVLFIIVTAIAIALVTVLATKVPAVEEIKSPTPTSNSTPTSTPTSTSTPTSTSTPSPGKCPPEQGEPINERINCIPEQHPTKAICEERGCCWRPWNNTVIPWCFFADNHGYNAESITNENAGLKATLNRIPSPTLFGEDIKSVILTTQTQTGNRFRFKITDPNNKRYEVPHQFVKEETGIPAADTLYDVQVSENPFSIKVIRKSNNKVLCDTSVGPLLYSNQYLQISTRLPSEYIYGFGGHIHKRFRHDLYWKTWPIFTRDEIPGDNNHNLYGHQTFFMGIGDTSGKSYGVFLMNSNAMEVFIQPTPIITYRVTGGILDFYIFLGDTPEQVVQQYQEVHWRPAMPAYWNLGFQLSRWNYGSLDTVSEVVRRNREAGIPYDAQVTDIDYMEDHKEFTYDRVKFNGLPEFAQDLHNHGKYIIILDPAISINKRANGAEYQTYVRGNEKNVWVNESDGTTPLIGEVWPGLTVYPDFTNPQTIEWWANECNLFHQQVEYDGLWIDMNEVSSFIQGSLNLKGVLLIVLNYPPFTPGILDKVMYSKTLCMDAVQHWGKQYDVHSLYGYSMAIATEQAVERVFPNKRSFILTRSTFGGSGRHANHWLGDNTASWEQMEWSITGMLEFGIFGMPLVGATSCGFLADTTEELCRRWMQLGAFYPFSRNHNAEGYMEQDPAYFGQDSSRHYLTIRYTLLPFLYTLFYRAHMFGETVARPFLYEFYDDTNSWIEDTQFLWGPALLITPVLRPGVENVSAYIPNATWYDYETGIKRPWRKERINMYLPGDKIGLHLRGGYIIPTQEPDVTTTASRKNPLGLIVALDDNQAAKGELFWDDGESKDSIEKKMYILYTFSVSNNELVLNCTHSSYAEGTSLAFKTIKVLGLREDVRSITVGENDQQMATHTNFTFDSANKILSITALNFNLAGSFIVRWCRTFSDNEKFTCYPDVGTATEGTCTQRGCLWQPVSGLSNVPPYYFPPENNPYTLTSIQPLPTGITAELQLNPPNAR
Sequence of Sucrase-isomaltase, intestinal (P23739 1014-1841 limits assumed): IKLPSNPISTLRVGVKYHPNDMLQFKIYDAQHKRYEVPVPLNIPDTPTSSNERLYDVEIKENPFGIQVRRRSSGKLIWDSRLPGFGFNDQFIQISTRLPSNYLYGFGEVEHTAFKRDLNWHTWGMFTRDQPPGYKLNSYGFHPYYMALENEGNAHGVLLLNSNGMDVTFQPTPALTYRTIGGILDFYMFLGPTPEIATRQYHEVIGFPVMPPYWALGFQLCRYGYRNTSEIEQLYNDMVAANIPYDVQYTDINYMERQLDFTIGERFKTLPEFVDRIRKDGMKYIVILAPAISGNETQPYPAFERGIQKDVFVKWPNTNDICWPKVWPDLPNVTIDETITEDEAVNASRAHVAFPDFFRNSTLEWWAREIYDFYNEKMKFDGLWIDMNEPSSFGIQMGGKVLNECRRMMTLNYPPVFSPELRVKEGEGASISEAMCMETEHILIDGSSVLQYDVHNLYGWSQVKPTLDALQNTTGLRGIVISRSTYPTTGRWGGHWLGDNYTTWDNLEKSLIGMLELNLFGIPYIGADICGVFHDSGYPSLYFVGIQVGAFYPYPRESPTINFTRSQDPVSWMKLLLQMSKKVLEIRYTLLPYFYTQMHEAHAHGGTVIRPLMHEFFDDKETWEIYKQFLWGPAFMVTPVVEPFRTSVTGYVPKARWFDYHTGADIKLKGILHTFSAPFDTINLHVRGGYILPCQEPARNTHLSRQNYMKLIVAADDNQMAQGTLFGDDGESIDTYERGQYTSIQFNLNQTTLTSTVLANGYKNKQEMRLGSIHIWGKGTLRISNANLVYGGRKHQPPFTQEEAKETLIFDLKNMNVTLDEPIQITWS

One may read the inhibition as the share of the control response that was lost under treatment. A word on the IC50: it is the concentration that inhibits the measured activity by half. Take `COc1cccc([C@@]2(CO)NC[C@H](O)[C@H]2O)c1`: the inhibition in the test filed under Sus scrofa was determined as 3.8%; in the test listed under Rattus norvegicus it was 0.6%; in the test with Prunus dulcis, 1.7%; with Oryza sativa it was 47.3%; in test [3], 46%; in the test filed under Bos taurus [4], 12.8%. In addition, the inhibition came out at 1.6% in [5]; 26.5% in the test listed under Bos taurus [6]; 0% in test [7]; 0% in the test on Helix pomatia; 1.6% in test [8]; 5% in the test with Aspergillus niger. The results for the inhibition in the test on Penicillium decumbens, in the test with Escherichia coli and in the test filed under Bos taurus [9] were 5.5%, 0% and 8.2%, respectively. Moreover, the figures for the IC50 in test [1] and in test [2] were 2.2 µM and 19 µM, respectively.

Turning to `OC[C@]1(c2cccc(F)c2)NC[C@H](O)[C@H]1O`, the inhibition in the test listed under Sus scrofa was found to be 8.3%; in the test listed under Rattus norvegicus, 10%; in the test on Prunus dulcis, 0%; in the test filed under Bos taurus [4] it was 11.3%; in the test filed under Bos taurus [6] it was 16.4%; in [7] it was 0%. Moreover, the inhibition in the test on Helix pomatia amounted to 0%; in test [8] it was 0%; in the test on Aspergillus niger, 1.4%; in the test with Penicillium decumbens it was 0%; in the test with Escherichia coli, 0%; in the test listed under Bos taurus [9] it was 19.4%. Further, the IC50 in test [1] is 0.95 µM; in test [10] it was 491 µM; in test [2] it was 60 µM; in test [11], 817 µM.

Regarding `OC[C@@H]1NC[C@H](O)[C@H]1O`, the inhibition in the test on Prunus dulcis and in the test listed under Bos taurus [4] was below 50% throughout.

For the compound `COc1ccc([C@@]2(CO)NC[C@H](O)[C@H]2O)cc1OC`, the inhibition was found to be 0% in the test listed under Sus scrofa; 0% in the test listed under Rattus norvegicus; 0% in the test with Prunus dulcis; 32.3% in the test with Oryza sativa; 27.1% in [3]; 15.8% in the test filed under Bos taurus [4]. Moreover, the inhibition in test [5] came out at 0%; in the test filed under Bos taurus [6], 19%; in test [7], 0%; in the test on Helix pomatia, 0%; in test [8], 0.5%; with Aspergillus niger, 6.4%. In addition, the inhibition amounted to 0% in the test with Penicillium decumbens, 0% in the test on Escherichia coli and 23.3% in the test filed under Bos taurus [9]. Further, the IC50 was found to be 2.5 µM in test [1] and 64 µM in test [2].

In the case of `OC[C@@]1(c2c(F)c(F)c(F)c(F)c2F)NC[C@@H](O)[C@@H]1O`, the inhibition in the test listed under Sus scrofa was determined as 0%; in the test listed under Rattus norvegicus it was 14.1%; in the test with Prunus dulcis, 5.2%; in the test on Oryza sativa, 19.5%; in test [3], 18.5%; in the test listed under Bos taurus [4] it was 33%. Moreover, the inhibition was 0% in [5]; 38.1% in the test filed under Bos taurus [6]; 0% in [7]; 0% in the test on Helix pomatia; 3.8% in [8]; 7.8% in the test with Aspergillus niger. For the same compound, the inhibition in the test on Penicillium decumbens was 0%; in the test on Escherichia coli it was 0%; in the test filed under Bos taurus [9], 18.4%. Also, the IC50 in test [1] stood at 2.5 µM; in test [2] it was 388 µM.

Turning to `OC[C@]1(c2ccc(F)cc2)NC[C@H](O)[C@H]1O`, the inhibition in the test filed under Sus scrofa was found to be 4%; in the test filed under Rattus norvegicus, 27%; with Prunus dulcis it was 4.6%; in the test with Oryza sativa, 6.4%; in test [3], 8.3%; in the test listed under Bos taurus [4], 0.4%. Also, the inhibition in test [5] is 0%; in the test filed under Bos taurus [6], 0%; in test [7], 6.6%; in the test with Helix pomatia, 0%; in test [8], 0%; in the test with Aspergillus niger, 0%. Also, the inhibition with Penicillium decumbens was found to be 0%; with Escherichia coli, 3%; in the test filed under Bos taurus [9], 10.9%. Besides, the IC50 was 2.8 µM in test [1] and 305 µM in [2].

On to `COc1ccc([C@]2(CO)NC[C@@H](O)[C@@H]2O)cc1OC`, for which the inhibition came out at 0.8% in the test listed under Sus scrofa; 0% in the test listed under Rattus norvegicus; 0% in the test with Prunus dulcis; 11.4% with Oryza sativa; 11.1% in test [3]; 22.2% in the test listed under Bos taurus [4]. Moreover, the inhibition in test [5] was determined as 0%; in the test filed under Bos taurus [6], 24.3%; in [7] it was 0%; in the test on Helix pomatia it was 0%; in test [8], 0%; in the test with Aspergillus niger it was 0.5%. Also, the inhibition came out at 0% in the test on Penicillium decumbens, 0% with Escherichia coli and 17.5% in the test listed under Bos taurus [9]. Also, the IC50 in [1] was 4.1 µM; in test [2] it was 243 µM.

For `OC[C@]1(c2c(F)c(F)c(F)c(F)c2F)NC[C@H](O)[C@H]1O`, the inhibition in the test listed under Sus scrofa was 2%; in the test filed under Rattus norvegicus it was 40.2%; with Prunus dulcis, 4.6%; in the test with Oryza sativa, 0%; in [3] it was 6.9%; in the test filed under Bos taurus [4] it was 3.8%. The inhibition in the test listed under Bos taurus [6] stood at 3.7%; in test [7], 6.6%; in the test on Helix pomatia it was 0%; in test [8], 0%; with Aspergillus niger, 4.4%; in the test on Penicillium decumbens, 2%. Besides, the inhibition with Escherichia coli was found to be 2.6%; in the test filed under Bos taurus [9] it was 3.6%. Moreover, the IC50 in [1] worked out at 4.1 µM; in [2], 528 µM.

Turning to `Cc1ccc([C@]2(CO)NC[C@@H](O)[C@@H]2O)cc1`, the inhibition is 0% in the test listed under Sus scrofa; 12.9% in the test filed under Rattus norvegicus; 8.7% in the test with Prunus dulcis; 29.1% in the test on Oryza sativa; 21.3% in test [3]; 29.1% in the test filed under Bos taurus [4]. Besides, the inhibition in test [5] turned out to be 1.6%; in the test listed under Bos taurus [6], 35%; in test [7], 0%; with Helix pomatia, 0%; in test [8], 0%; in the test on Aspergillus niger, 8.3%. In addition, the inhibition in the test with Penicillium decumbens is 7.4%; in the test with Escherichia coli, 0%; in the test listed under Bos taurus [9], 8.7%. The IC50 was determined as 3.4 µM in [1] and 212 µM in [2].

Values taken from ChEMBL document CHEMBL5131499, “Design, synthesis and glycosidase inhibition of C-4 branched LAB and DAB derivatives” (Eur J Med Chem, 2022).
